Measured values reported in patent US20140326192A1, “ANTIMICROBIAL ANIMAL PRODUCT” (COVENTRY UNIVERSITY, priority 2011, published 2014).

Assay: Stability of the antimicrobial agent to melting during processing (activity retained)
Type: physicochemical
Protocol: Bundles of the dosed and non-dosed fibres were melted at 170° C. and compressed, to manufacture a number of continuous, smooth, 2 mm thick plastic sheets. The sheets were cut to create 50×50 mm area test pieces, as required by the standard test for Anti Microbial Activity ISO 22196:2007. This test is an appropriate method for assessing the surface antimicrobial activity of plastic materials when micro-organisms are placed onto the test piece.
3-(trihydroxysilyl)propyldimethyl octodecyl ammonium chloride was combined with polypropylene stock at a dosing rate of around 1% by total weight and the mixture melted, before extruding it into fibres. Control fibres were produced by a method identical other than omission of the 3-(trihydroxysilyl)propyldimethyl octodecyl ammonium chloride. The fibres were 0.45 mm with an X shape cross section and 100 mm long.

## CCCCCCCCCCCCCCCCCC[N+](C)(C)CCC[Si](O)(O)O.[Cl-] [antimicrobial agent, 3-(trihydroxysilyl)propyldimethyl octodecyl ammonium chloride]
Fibres melted at 170° C. and compressed
  stability to re-melting of the fibres when making the test pieces: sufficiently stable
Melting to 200° C.
  stability after melting when making the fibres: sufficiently stable
